Results taken from article PMC6120666 (The EMBO Journal, 2018).
Blank lines part the entries; values can stand above or below the molecule they belong to.

Assays:
NanoLuc-RIPK2 [1] = target: T1, NanoLuc-RIPK2 (Homo sapiens, UniProt O43353); assay: nanoBRET cellular RIPK2 target engagement assay in HEKBlue cells; conditions: average ± SD of at least three titrations, read-out: IC50, Cellular activity, nanoBRET RIPK2 binding
T1 construct: host or cells: hNOD2-HEKBlue cells

NanoLuc-RIPK2 [2] = target: T1, NanoLuc-RIPK2; assay: nanoBRET cellular RIPK2 residence time assay in HEKBlue cells; assay type: binding; conditions: t1/2 for probe to engage RIPK2 after washout of inhibitor
recombinant RIPK2 kinase = target: T2, recombinant RIPK2 kinase (Homo sapiens, UniProt O43353); assay: RIPK2 ADPGlo in vitro kinase assay; assay type: biochemical; conditions: average ± SD of at least three titrations, read-out: IC50, In vitro kinase, RIPK2 ADPGIo
T2 construct: made in house
Description: The BIR2 domains of XIAP and cIAP1 were cloned into the pGEX‐6P1 vector and were expressed in E. coli (BL21) cells as a fusion protein with N‐terminal 6xHis (XIAP BIR2 only) and GST tags. Protein expression was induced with IPTG, and cells were lysed using BugBuster protein extraction reagent (#70921, Merck Millipore) according to manufacturer's instructions. Proteins were purified with the FPLC protein purification system ÄKTA PrimePlus (GE Healthcare Life Sciences) using HisTrap FF column purification followed by gel filtration (HiLoad 26/600 Superdex 75 pg (GE Healthcare Life Sciences)). Collected fractions were stored at −80°C and used for probing of peptide array membranes. Expression and purification of recombinant RIPK1‐3 was performed as previously described (Canning et al, 2015; Najjar et al, 2015). RIPK1‐3 ADPGlo kinase assays using 20 ng/well protein were performed for 2 h at room temperature also as previously described (Canning et al, 2015; Najjar et al, 2015).

NOD2/HEKBlue cells = assay: hNOD2-HEKBlue L18-MDP-induced NF-κB reporter assay; assay type: cell-based, human; conditions: Homo sapiens, HEK-Blue; L18-MDP-induced NF-κB reporter; average ± SD of at least three titrations
Procedure: For HEKBlue assay, cells were seeded into clear 96‐well plates at 7.5 × 10^3 cells/well and allowed to attach for 48 h. On the day of the experiment, media was changed to 100 μl of HEKBlue detection media (InvivoGen). Inhibitors were diluted and added in 0.5 μl DMSO 15 min prior to the addition of 1 ng/ml L18‐MDP (InvivoGen). After 8–9 h, absorbance at 620 nm was measured using Victor3V plate reader (Perkin Elmer, Waltham, MA). Values of media‐only wells were subtracted and %inhibition for each compound concentration relative to the DMSO/L18‐MDP‐treated controls was calculated. Inhibition values ± SD were fitted by non‐linear regression using Prism software (GraphPad Software, La Jolla, CA) to calculate IC50 values. For THP1Blue assay, 1 × 10^5 cells were seeded in 200 μl of RPMI media in 96‐well plates and treated with inhibitors in 0.5 μl DMSO for 15 min prior to the addition of 10 μg/ml MDP, 10 ng/ml Pam3CSK4, 10 ng/ml E. coli LPS, or 1 × 10^7 cells/ml heat‐killed L. monocytogenes (InvivoGen) for 24 h. After induction, 20 μl of media was mixed with 180 μl of QUANTI‐Blue reagent (InvivoGen) and incubated at 37°C for 3–4 h, followed by absorbance measurement at 620 nm. IC50 values were calculated as described for HEKBlue assay.
Cayman Chemical Company, Ann Arbor, MI), GSK583 (#HY-100339, MedChem Express, South Brunswick, NJ), WEHI-345 (MedKoo Biosciences, Morrisville, NC), Compound A (CpA, a kind gift from TetraLogic Pharmaceuticals, Malvern, PA). Generation of the CSLP compound series is described in Suebsuwong et al. 2018 (manuscript in preparation). hNOD2-HEKBlue and THP1Blue assays
For HEKBlue assay, cells were seeded into clear 96 well plates at 7.5x10^3 cells/well and allowed to attach for 48 h. On the day of the experiment, media was changed to 100 μl of HEKBlue detection media (InvivoGen). Inhibitors were diluted and added in 0.5 μl DMSO 15 min prior to the addition of 1 ng/ml L18-MDP (InvivoGen). After 8-9 h, absorbance at 620 nm was measured using Victor3V plate reader (Perkin Elmer, Waltham, MA). Values of media-only wells were subtracted and %inhibition for each compound concentration relative to the DMSO/L18-MDP-treated controls were calculated.
Inhibition values + StDev were fitted by non-linear regression using Prism software (GraphPad Software, La Jolla, CA) to calculate IC50 values. For THP1Blue assay, 1x10^5 cells were seeded in 200 μl of RPMI media in 96 well plates and treated with inhibitors in 0.5 μl DMSO 15 min prior to the addition of 10 µg/ml MDP, 10 ng/ml Pam3CSK4, 10 ng/ml E. coli LPS or 1x10^7 cells/ml heat-killed L. monocytogenes (InvivoGen) for 24 h. After induction, 20 μl of media was mixed with 180 μl of QUANTI-Blue reagent (InvivoGen) and incubated at 37 °C for 3-4 h, followed by absorbance measurement at 620 nm. IC50 values were calculated as described for HEKBlue assay. […]

[3] = system: RIPK2 ubiquitination in U2OS/NOD2 and THP-1 cells; assay: Purification of Ub-conjugates (TUBE pulldown), RIPK2 ubiquitination; assay type: cell-based, human; conditions: U2OS/NOD2 or THP-1 cells, L18-MDP 200 ng/ml, 1 h
Procedure: For co‐immunoprecipitation of HA‐XIAP with RIPK2, transfected and treated cells were lysed in TBS buffer containing 0.5% NP‐40, cOmplete and PhosSTOP inhibitors (Roche) and the lysate was cleared by centrifugation. The lysates were incubated with anti‐HA‐agarose overnight, washed 3× with lysis buffer, and analyzed by immunoblotting. For GST pulldown experiments, U2OS/NOD2 cells were lysed in TBS lysis buffer containing 0.5% NP‐40, cOmplete and PhosSTOP inhibitors (Roche). Cleared lysates were pretreated with kinase inhibitors or DMSO and incubated with GST‐XIAP‐BIR2 bound to Glutathione Sepharose at 4°C overnight. Bound material was washed 3× with lysis buffer or PBS, eluted with 15 mM Glutathione in PBS, and analyzed by immunoblotting. […] The bound material was eluted and analyzed as described above. […]
PBS, eluted with 15 mM Glutathione in PBS and analyzed by immunoblotting. […]

U2OS/NOD2 cells = assay: Intracellular flow cytometry of CXCL8 after L18-MDP; assay type: cell-based, human; conditions: U2OS/NOD2 cells, L18-MDP 200 ng/ml, 4 h
Procedure: Purified material and lysates were analyzed by immunoblotting. […] Numbering below schematic refers to amino acid residues in human RIPK2 and indicate domain boundaries. […] Data information: Data in (A, B, D, H) represent the mean ± SEM of 2–4 independent experiments, each performed in duplicate. […] Two‐way ANOVA was used to determine statistical significance. See also Fig EV1.Source data are available online for this figure.
Dark gray represents areas occupied by RIPK2; white areas indicate empty spaces in CSLP binding pocket. […] Dotted black box indicates region shown for models with CSLP37 and CSLP43. • Molecular docking model of RIPK2 kinase domain in complex with CSLP43 (green) based on RIPK2/CSLP18 structure from (D). […] Two‐way ANOVA was used to determine statistical significance. See also Fig EV2.
GST-BIR2-XIAP as indicated. Intensity quantification of SPOTs was performed using ImageJ software
Dual luciferase reporter assay
Intracellular flow cytometry of CXCL8
for cell death) or vehicle for 24h. Viability was determined using the CellTiter-Glo® luminescent cell
together with Transfection Carrier DNA (Promega).
After addition of Nano-Glo

His6‐GST‐XIAP‐BIR2 D214S = target: T3, His6‐GST‐XIAP‐BIR2 D214S (UniProt P98170 124-242, D214S); assay: peptide or protein array; SPOT assay: selected RIPK2 peptides and their Ala-/Leu-scan variants spotted in triplicate on cellulose, probed with 6xHis-GST-BIR2 of XIAP (WT or D214S), detected with anti-His-HRP, spots quantified with ImageJ; conditions: both partners purified
T3 construct: not restated for the mutant; also called D214S BIR2 domain; D214S mutant; source: E. coli (BL21), purified (HisTrap FF, gel filtration); not shown: His6, N-terminal, kept; GST, N-terminal, kept

IC50 (NanoLuc-RIPK2 [1]): 578 ± 34.1 nM
residence time (NanoLuc-RIPK2 [2]): 66.6 min
IC50 (recombinant RIPK2 kinase): 31.6 ± 8.7 nM
Molecule: CCCS(=O)(=O)Nc1cc(-c2cc(-c3ccc(N4CCNCC4)cc3)cnc2N)ccc1OC [CSLP18]
IC50 (NOD2/HEKBlue cells): 476 ± 96.7 nM

IC50 (NanoLuc-RIPK2 [1]): 167 ± 19 nM
residence time (NanoLuc-RIPK2 [2]): 106 min
IC50 (recombinant RIPK2 kinase): 39.1 ± 1.5 nM
Molecule: CCCS(=O)(=O)Nc1cc(F)cc(-c2cc(-c3ccc(N4CCNCC4)cc3)cnc2N)c1 [CSLP38]
IC50 (NOD2/HEKBlue cells): 740 ± 60.7 nM

Molecule: CCCS(=O)(=O)Nc1cc(-c2cc(-c3ccc(N4CCNCC4)cc3)cnc2C)cc(F)c1OC [CSLP53]
IC50 (NanoLuc-RIPK2 [1]): > 10000 nM
IC50 (recombinant RIPK2 kinase): 1410 nM
IC50 (NOD2/HEKBlue cells): 2560 nM

Molecule: CC(C)(C)S(=O)(=O)c1ccc2nccc(Nc3n[nH]c4ccc(F)cc34)c2c1 [GSK583, 6‐(tert‐Butylsulfonyl)‐N‐(5‐fluoro‐1H‐indazol‐3‐yl)quinolin‐4‐amine, reference compound]
RIPK2 ubiquitination after L18-MDP [3]: antagonized
L18-MDP-induced CXCL8 production (U2OS/NOD2 cells): inhibited

binding result (His6‐GST‐XIAP‐BIR2 D214S): binds
B1: RIPK2 peptide A13 (residues 28‐42) (peptide, UniProt O43353 28-42, looked up)
peptide: ASGTVSSARHADWRV
notes: 15-mer of human RIPK2, residues 28-42 (β2 and the β2‐β3 loop of the N‐lobe of the kinase domain); also called A13 peptide

binding result (His6‐GST‐XIAP‐BIR2 D214S): binds
Molecule: ADFGLSKWRMMSLSQ (peptide, UniProt O43353 163-177, looked up, 15-mer of human RIPK2, residues 163-177) [RIPK2 peptide E6 (residues 163–177)]
